Measured values: patent publication US20250154163A1, “Pyrimidinone-Containing 17-Beta-Hydroxysteroid Dehydrogenase Type 13 Inhibitors” (ENANTA PHARMACEUTICALS, INC., priority 2023, published 2025)

The compounds below were run against T1, human HSD17β13 (stable HEK293T cell line overexpressing human HSD17β13) (Homo sapiens, UniProt Q7Z5P4) (assay: HSD17β13 inhibitor cell-based screening assay (conversion of estradiol-d2 to estrone-d2 by RF-MS)). Conditions: conversion of estradiol-d2 to estrone-d2 after 24 hours.
T1 construct: expressed in transfected cells
T1 sequence (Q7Z5P4 20-300): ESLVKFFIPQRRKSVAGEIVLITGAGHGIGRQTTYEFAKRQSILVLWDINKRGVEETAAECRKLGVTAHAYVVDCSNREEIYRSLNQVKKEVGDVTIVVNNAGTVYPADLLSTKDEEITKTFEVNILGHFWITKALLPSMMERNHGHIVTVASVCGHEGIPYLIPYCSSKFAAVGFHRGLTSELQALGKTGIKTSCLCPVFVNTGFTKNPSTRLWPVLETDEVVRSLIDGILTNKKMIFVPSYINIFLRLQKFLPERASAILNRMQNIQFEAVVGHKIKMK
Procedure: The purpose of this cell-based assay is to determine the cellular efficacy (IC50) of HSD17β13 inhibitors in a stable HEK293 T cell line overexpressing human HSD17β13. The assay measures by Rapid Fire mass-spectrometry (RF-MS) the conversion of estradiol-d2 to estrone-d2. Cytotoxicity was also assessed via luminescent signal generated by the ATPlite viability assay reagent. To screen compounds for HSD17013 inhibition, black 384-well plates were seeded with 1000× concentration of compounds in a 9-point 1:3 dilution curve (final top concentration of 10 μM) as well as 1000× concentration of 17β-estradiol-d2 (5 μM final concentration) added to all wells. HEK293T cells stably overexpressing human HSD17013 and the parent HEK293T cell lines were then seeded in the plates on top of the compounds and substrate in MEM media containing 1% charcoal/dextran-treated FBS. Supernatant is collected and immediately frozen after 24 hours of incubation, and conversion of estradiol-d2 to estrone-d2 is measured at Pure Honey by RF-MS. The remaining media in the plate was removed from the wells and replaced with ATPlite viability assay reagent. Luminescent signal from the ATPlite reagent was measured on the Envision plate reader. 10 μL of 10 mM compounds stocks (1000×) dissolved in DMSO were pipetted into the appropriate wells on the 384 LDV plate (Labcyte; cat. no.: LP-0200) and the appropriate volumes of DMSO solvent were included onto an intermediate plate to further dilute the compound stocks to complete the 9-pt dose curve (final top concentration of 10 μM). 10 μL per well of 5 mM estradiol-d2 (1000×) (Cayman; item no.: 9002846) (5 μM final concentration) dissolved in DMSO was seeded into the appropriate number of wells on the same source plate as the compounds. The Echo 650 (Labcyte) was used for compound dilutions and dispensing both the compounds and the substrate onto a dry 384-well black assay plate (Falcon/Corning; cat. no.:353962). Afterwards, cells were immediately counted and seeded onto the plate. Cells were cultured for expansion in EMEM (ATCC; cat. no.: 30-2003)+10% FBS (Hyclone; cat. no.: SH3007003)+1×PenStrep (Gibco; cat. no.: 15140-122). All media for stable cell line overexpressing HSD17013 also included […] zeocin (Invitrogen; cat. no.: 46-0509) for selection. To prepare cells for seeding into the 384-well assay plate, cells were trypsinized for 3 minutes in the incubator. The Trypsin-EDTA (0.25%) (Gibco; cat. no.: 25200056) was neutralized with EMEM complete culture medium warmed to 37° C. Cells were then centrifugated at 300×g for 5 minutes at room temperature. The cell pellet was resuspended in phenol red-free MEM (Gibco; cat. no.: 51200-038)+1% charcoal/dextran-treated FBS (Hyclone; cat. no.: SH3006803) and 1×PenStrep warmed to 37° C. Cells were then counted using the TC20 automated cell-counter (Bio-Rad) and disposable duel chamber counting slides (Bio-Rad; cat. no.: 1450016) for a cell density of 1.5E5 cells/mL to then seed into the assay plate at 7.5E3 cells/well with 50 μL of media per well. Prior to the 24-hour time point, a solution of 1% formic acid (10×) (Honeywell; cat. no.: 94318) in MEM phenol red-free MEM+1% charcoal/dextran-treated FBS and 1×PenStrep was made. ATPlite luminescent ATP detection reagent (PerkinElmer; cat. no.: 6016739) was prepared according to the manufacturer's instructions. A new 384-well Falcon plate (collection plate) was seeded with 2 μL per well of 10× formic acid and then 18 μL of cell supernatant was added onto the formic acid, resulting in a 20 μL per well solution of 0.1% formic acid (1×) in supernatant. The plate of collected supernatant was immediately frozen on dry ice before being stored at −80° C. The collection plate was shipped to Momentum Biotechnologies for analysis. The remaining supernatant in the assay plate was discarded and 25 μL of ATPlite reagent was added to each well. […]

IC50 [nM] | Structure (SMILES)
< 100 | O=c1c2c(nc(-c3cc(F)c(F)cc3C3CC3)n1Cc1ccno1)sc1c(O)c(Cl)ccc12 [Example 62, 7-chloro-2-(2-cyclopropyl-4,5-difluorophenyl)-8-hydroxy-3-(isoxazol-5-ylmethyl)benzo[4,5]thieno[2,3-d]pyrimidin-4(3H)-one]
100 to 500 | COc1ccc(C2=Nc3sc4c(O)c(Cl)ccc4c3C(=O)C2Cc2cc[nH]c(=O)c2)c(C2CC2)c1 (stereo not shown) [Example 157]
500 to 1000 | Cn1ncc2cc(C3CC3)c(-c3nc4sc5c(O)c(Cl)ccc5c4c(=O)n3Cc3cnco3)cc21 [Example 194]
< 100 | O=c1c2c(nc(-c3cc(F)c(F)cc3C3CC3)n1Cc1cc(Br)no1)sc1c(O)c(Cl)ccc12 [Example 165]
500 to 1000 | COc1cc(C2CC2)c(-c2nc3sc4c(O)c(Cl)ccc4c3c(=O)n2Cc2cnco2)cc1C1CCCC1 [Example 109, 7-chloro-2-(5-cyclopentyl-2-cyclopropyl-4-methoxyphenyl)-8-hydroxy-3-(oxazol-5-ylmethyl)benzo[4,5]thieno[2,3-d]pyrimidin-4(3H)-one]
< 100 | O=c1c2c(nc(-c3ccc(C(F)F)cc3C3CC3)n1Cc1ccc(C(F)(F)F)nc1)sc1c(O)c(Cl)ccc12 [Example 180]
< 100 | COc1ccc(-c2nc3sc4c(O)c(F)ccc4c3c(=O)n2Cc2cnco2)c(C2CC2)c1 [Example 56, 2-(2-cyclopropyl-4-methoxyphenyl)-7-fluoro-8-hydroxy-3-(oxazol-5-ylmethyl)benzo[4,5]thieno[2,3-d]pyrimidin-4(3H)-one]
1000 to 100000 | COc1ccc(-c2nc3sc4c(Br)c(O)ccc4c3c(=O)n2Cc2cnco2)c(C2CC2)c1 [Example 37, 8-bromo-2-(2-cyclopropyl-4-methoxyphenyl)-7-hydroxy-3-(oxazol-5-ylmethyl)benzo[4,5]thieno[2,3-d]pyrimidin-4(3H)-one]
< 100 | N#Cc1ccc(-c2nc3sc4c(O)c(Cl)ccc4c3c(=O)n2Cc2cc(C(F)(F)F)no2)c(C2CC2)c1 [Example 98]
< 100 | O=c1c2c(nc(-c3cc(F)c(F)cc3C3CC3)n1Cc1ccns1)sc1c(O)c(Cl)ccc12 [Example 212]
< 100 | Cn1ncc2cc(-c3nc4sc5c(O)c(Cl)ccc5c4c(=O)n3Cc3cnco3)c(C3CC3)cc21 [Example 142]
100 to 500 | COc1cc(-c2nc3sc4c(O)c(Cl)ccc4c3c(=O)n2Cc2cnco2)c(C2CC2)cc1OC [Example 118]
< 100 | CS(=O)(=O)c1cnc(-c2nc3sc4c(O)c(Cl)ccc4c3c(=O)n2Cc2cc(C(F)(F)F)no2)c(C2CC2)c1 [Example 112, 7-chloro-2-(3-cyclopropyl-5-(methylsulfonyl)pyridin-2-yl)-8-hydroxy-3-((3-(trifluoromethyl)isoxazol-5-yl)methyl)benzo[4,5]thieno[2,3-d]pyrimidin-4(3H)-one]
100 to 500 | COc1ccc(-c2nc3sc4c(O)c(Cl)cc(Br)c4c3c(=O)n2Cc2cnco2)c(C2CC2)c1 [Example 222]
< 100 | COc1ccc(-c2nc3sc4c(OC(C)=O)c(Cl)ccc4c3c(=O)n2Cc2cnco2)c(C2CC2)c1 [Example 27, 7-chloro-2-(2-cyclopropyl-4-methoxyphenyl)-3-(oxazol-5-ylmethyl)-4-oxo-3,4-dihydrobenzo[4,5]thieno[2,3-d]pyrimidin-8-yl acetate]
< 100 | COc1ccc(-c2nc3sc4c(O)c(Cl)ccc4c3c(=O)n2Cc2cnc(C(C)C)s2)c(C2CC2)c1 [Example 196]
1000 to 100000 | COc1ccc(-c2nc3sc4c(ccc5oc(=O)[nH]c54)c3c(=O)n2Cc2cnco2)c(C2CC2)c1 [Example 38, 8-(2-cyclopropyl-4-methoxyphenyl)-7-(oxazol-5-ylmethyl)oxazolo[4″,5″:3′,4′]benzo[1′,2′:4,5]thieno[2,3-d]pyrimidine-2,6(1H,7H)-dione]

IC50 [nM] | Structure (SMILES)
1000 to 100000 | COc1ccc(-c2nc3sc4c(O)c(Cl)ccc4c3c(=O)n2CC(=O)O)c(C2CC2)c1 [Example 46, 2-(7-chloro-2-(2-cyclopropyl-4-methoxyphenyl)-8-hydroxy-4-oxobenzo[4,5]thieno[2,3-d]pyrimidin-3(4H)-yl)acetic acid]
< 100 | O=c1c2c(nc(-c3ccc(-c4ncco4)cc3C3CC3)n1Cc1cnco1)sc1c(O)c(Cl)ccc12 [Example 110, 7-chloro-2-(2-cyclopropyl-4-(oxazol-2-yl)phenyl)-8-hydroxy-3-(oxazol-5-ylmethyl)benzo[4,5]thieno[2,3-d]pyrimidin-4(3H)-one]
< 100 | COc1ccc(-c2nc3sc4c(O)c(Cl)ccc4c3c(=O)n2Cc2sc(C)nc2C)c(C2CC2)c1 [Example 53, 7-chloro-2-(2-cyclopropyl-4-methoxyphenyl)-3-((2,4-dimethylthiazol-5-yl)methyl)-8-hydroxybenzo[4,5]thieno[2,3-d]pyrimidin-4(3H)-one]
< 100 | COc1ccc(-c2nc3sc4c(O)c(Cl)ccc4c3c(=O)n2Cc2cccnc2)c(C2CC2)c1 [Example 152]
< 100 | O=c1c2c(nc(-c3cc(F)c(F)cc3C3CC3)n1Cc1cn[nH]n1)sc1c(O)c(Cl)ccc12 [Example 214]
1000 to 100000 | COc1ccc(-c2nc3sc4c(S(=O)(=O)O)cccc4c3c(=O)n2Cc2cnco2)c(C2CC2)c1 [Example 12, 2-(2-cyclopropyl-4-methoxyphenyl)-3-(oxazol-5-ylmethyl)-4-oxo-3,4-dihydrobenzo[4,5]thieno[2,3-d]pyrimidine-8-sulfonic acid]
< 100 | CCc1ncc(Cn2c(-c3cc(F)c(F)cc3C3CC3)nc3sc4c(O)c(Cl)ccc4c3c2=O)s1 [Example 205]
< 100 | O=c1c2c(nc(-c3cc(F)c(F)cc3C3CC3)n1Cc1cnccn1)sc1c(O)c(Cl)ccc12 [Example 207]
< 100 | COc1ccc(Cn2c(-c3cc(F)c(F)cc3C3CC3)nc3sc4c(O)c(Cl)ccc4c3c2=O)cn1 [Example 168]
< 100 | CS(=O)(=O)Nc1ccc(-c2nc3sc4c(O)c(Cl)ccc4c3c(=O)n2Cc2cnc(C(F)(F)F)nc2)c(C2CC2)c1 [Example 185]
< 100 | Cn1cc(Cn2c(-c3cc(F)c(F)cc3C3CC3)nc3sc4c(O)c(Cl)ccc4c3c2=O)cn1 [Example 216]
< 100 | COc1ccc(-c2nc3sc4c(O)c(Cl)ccc4c3c(=O)n2CCCc2cnco2)c(C2CC2)c1 [Example 189]
< 100 | COc1ccc(-c2nc3sc4c(O)c(Cl)ccc4c3c(=O)n2C[C@@H]2CC(=O)N(C)C2)c(C2CC2)c1 [Example 88]
100 to 500 | COc1cc(C2CC2)c(-c2nc3sc4c(O)c(Cl)ccc4c3c(=O)n2Cc2cnco2)cc1C1CC1 [Example 107, 7-chloro-2-(2,5-dicyclopropyl-4-methoxyphenyl)-8-hydroxy-3-(oxazol-5-ylmethyl)benzo[4,5]thieno[2,3-d]pyrimidin-4(3H)-one]
< 100 | O=c1c2c(nc(-c3ccc(C(F)(F)F)nc3C3CC3)n1Cc1cnco1)sc1c(O)c(Cl)ccc12 [Example 92]
< 100 | O=c1c2c(nc(-c3cc(F)c(F)cc3C3CC3)n1Cc1cnc(C(F)(F)F)nc1)sc1c(O)c(F)ccc12 [Example 183]
100 to 500 | COc1ccc(-c2nc3sc4c(O)c(Cl)cc(C)c4c3c(=O)n2Cc2cnco2)c(C2CC2)c1 [Example 221]
